In the assay the target is T1, Human M4 (Homo sapiens, UniProt P08173).
T1 construct: expressed in transfected cells; host or cells: CHO-K1 (ATCC), co-transfected with chimeric G protein Gqi5
T1 sequence (P08173 1-479): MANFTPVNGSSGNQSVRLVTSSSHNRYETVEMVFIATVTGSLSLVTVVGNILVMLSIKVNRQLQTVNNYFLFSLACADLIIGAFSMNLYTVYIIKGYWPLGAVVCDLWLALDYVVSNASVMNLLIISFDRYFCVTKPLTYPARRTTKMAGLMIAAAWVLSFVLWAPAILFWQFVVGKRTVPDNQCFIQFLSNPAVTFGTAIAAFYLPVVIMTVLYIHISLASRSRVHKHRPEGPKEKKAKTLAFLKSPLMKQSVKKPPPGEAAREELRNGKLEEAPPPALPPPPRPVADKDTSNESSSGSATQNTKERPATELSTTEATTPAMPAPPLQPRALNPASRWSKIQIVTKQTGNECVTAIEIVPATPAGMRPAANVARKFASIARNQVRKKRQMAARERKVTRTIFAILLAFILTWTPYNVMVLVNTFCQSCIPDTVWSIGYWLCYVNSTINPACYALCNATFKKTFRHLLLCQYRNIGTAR
Description: mAChR M4 cell-based functional assay (calcium flux, antagonism of EC80 acetylcholine response). Particulars: M4/Gqi5/CHO-K1 cells; for remaining activity at 30 µM: CHO-K1, % ACh maximum at 30 μM, read-out: Human M4 Emin; for IC50: decrease of response elicited by EC80 acetylcholine. The essentials: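 CHO-K1 cells stably expressing human or rat M4 with Gqi5, Fluo-4 loaded; calcium measured by fluorescence ratio on FDSS. Compound added, then EC20 acetylcholine at 143 s and EC80 at 268 s; IC50 from decrease of EC80 response, four-parameter logistic fit.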

In patent US20230122344A1, “ANTAGONISTS OF THE MUSCARINIC ACETYLCHOLINE RECEPTOR M4” (Vanderbilt University, priority 2019, published 2023) one finds remaining activity and IC50 data, which are given here for 20 compounds.

Turning to `[2H]C([2H])(C1CCOCC1)N1C[C@H]2C[C@H](Nc3cc(C(F)F)c(-c4cc(F)cc(F)c4F)nn3)C[C@H]2C1` [compound 40, (3aR,5s,6aS)-N-(5-(difluoromethyl)-6-(2,3,5-trifluorophenyl)pyridazin-3-yl)-2-((tetrahydro-2H-pyran-4-yl)methyl-d2)octahydrocyclopenta[c]pyrrol-5-amine], the remaining activity at 30 µM came out at 3% and the IC50 is 1.37 nM.

`OC1(CN2C[C@H]3C[C@H](Nc4nnc(-c5cc(F)ccc5F)cc4C(F)F)C[C@H]3C2)CCOCC1` [compound 78, 4-(((3aR,5s,6aS)-5-((4-(difluoromethyl)-6-(2,5-difluorophenyl)pyridazin-3-yl)amino)hexahydrocyclopenta[c]pyrrol-2(1H)-yl)methyl)tetrahydro-2H-pyran-4-ol]: the remaining activity at 30 µM is 4% and the IC50 was found to be 230 nM.

On to `COc1cc(-c2ccc3nn(C)cc3c2)nnc1N[C@H]1C[C@@H]2CN(CC3CCOCC3)C[C@@H]2C1` [compound 5, (3aR,5s,6aS)-N-(4-methoxy-6-(2-methyl-2H-indazol-5-yl)pyridazin-3-yl)-2-((tetrahydro-2H-pyran-4-yl)methyl)octahydrocyclopenta[c]pyrrol-5-amine], for which the remaining activity at 30 µM came to 3% and the IC50 was 3.89 nM.

With `[2H]C([2H])(C1CCOCC1)N1C[C@H]2C[C@H](Nc3nnc(-c4cc(F)ccc4F)cc3C(F)F)C[C@H]2C1` [compound 25, (3aR,5s,6aS)-N-(4-(difluoromethyl)-6-(2,5-difluorophenyl)pyridazin-3-yl)-2-((tetrahydro-2H-pyran-4-yl)methyl-d2)octahydrocyclopenta[c]pyrrol-5-amine], the remaining activity at 30 µM is 3% and the IC50 is 1.68 nM.

On to `[2H]C([2H])(C1CCOCC1)N1C[C@H]2C[C@H](Nc3nnc(N4CCC(F)(F)CC4)cc3C3CC3)C[C@H]2C1` [compound 28, (3aR,5s,6aS)-N-(4-cyclopropyl-6-(4,4-difluoropiperidin-1-yl)pyridazin-3-yl)-2-((tetrahydro-2H-pyran-4-yl)methyl-d2)octahydrocyclopenta[c]pyrrol-5-amine], for which the remaining activity at 30 µM amounted to 3% and the IC50 was 186 nM.

Take `Cc1cc(N[C@H]2C[C@@H]3CN(CC4CCOCC4)C[C@@H]3C2)nnc1-c1ccc2nn(C)cc2c1C` [compound 16, (3aR,5s,6aS)-N-(6-(2,4-dimethyl-2H-indazol-5-yl)-5-methylpyridazin-3-yl)-2-((tetrahydro-2H-pyran-4-yl)methyl)octahydrocyclopenta[c]pyrrol-5-amine]: the remaining activity at 30 µM came out at 3% and the IC50 amounted to 1.08 nM.

`[2H]C([2H])(C1CCOCC1)N1C[C@H]2C[C@H](Nc3nnc(-c4cc(F)ccc4F)c(C)c3C)C[C@H]2C1` [compound 60, (3aR,5s,6aS)-N-(6-(2,5-difluorophenyl)-4,5-dimethylpyridazin-3-yl)-2-((tetrahydro-2H-pyran-4-yl)methyl-d2)octahydrocyclopenta[c]pyrrol-5-amine]: the remaining activity at 30 µM was determined as 2% and the IC50 came to 0.66 nM.

In the case of `[2H]C([2H])(C1CCOCC1)N1C[C@H]2C[C@H](Nc3nnc(-c4cccc(F)c4)c(C)c3C)C[C@H]2C1` [compound 62, (3aR,5s,6aS)-N-(6-(3-fluorophenyl)-4,5-dimethylpyridazin-3-yl)-2-((tetrahydro-2H-pyran-4-yl)methyl-d2)octahydrocyclopenta[c]pyrrol-5-amine], the remaining activity at 30 µM turned out to be 2% and the IC50 was 0.71 nM.

In the case of `COc1cc(-c2ccc3nn(C)cc3c2C)nnc1N[C@H]1C[C@@H]2CN(CC3CCOCC3)C[C@@H]2C1` [compound 8, (3aR,5s,6aS)-N-(6-(2,4-dimethyl-2H-indazol-5-yl)-4-methoxypyridazin-3-yl)-2-((tetrahydro-2H-pyran-4-yl)methyl)octahydrocyclopenta[c]pyrrol-5-amine], the remaining activity at 30 µM is 4% and the IC50 turned out to be 2.04 nM.

On to `COc1cc(-c2cccc(F)c2)nnc1N[C@H]1C[C@@H]2CN(CC3CCOCC3)C[C@@H]2C1` [compound 1, (3aR,5s,6aS)-N-(6-(3-fluorophenyl)-4-methoxypyridazin-3-yl)-2-((tetrahydro-2H-pyran-4-yl)methyl)octahydrocyclopenta[c]pyrrol-5-amine], for which the remaining activity at 30 µM is 5% and the IC50 amounted to 10.8 nM.

With `[2H]C([2H])(C1CCOCC1)N1C[C@H]2C[C@H](Nc3nnc(-c4cc(F)ccc4C)c(C)c3C)C[C@H]2C1` [compound 63, (3aR,5s,6aS)-N-(6-(5-fluoro-2-methylphenyl)-4,5-dimethylpyridazin-3-yl)-2-((tetrahydro-2H-pyran-4-yl)methyl-d2)octahydrocyclopenta[c]pyrrol-5-amine], the remaining activity at 30 µM was 2% and the IC50 was 0.92 nM.

On to `Cc1c(-c2ccc(F)cc2)nnc(N[C@H]2C[C@@H]3CN(CC4CCOCC4)C[C@@H]3C2)c1C#N` [compound 73, 6-(4-fluorophenyl)-5-methyl-3-(((3aR,5s,6aS)-2-((tetrahydro-2H-pyran-4-yl)methyl)octahydrocyclopenta[c]pyrrol-5-yl)amino)pyridazine-4-carbonitrile], for which the remaining activity at 30 µM was found to be 4% and the IC50 is 3.43 nM.

For `Cc1c(-c2cc(F)ccc2F)nnc(N[C@H]2C[C@@H]3CN(C[C@H]4CC5CCC4O5)C[C@@H]3C2)c1C#N` (stereo partly drawn) [compound 66, 3-(((3aR,5s,6aS)-2-(((2R)-7-oxabicyclo[2.2.1]heptan-2-yl)methyl)octahydrocyclopenta[c]pyrrol-5-yl)amino)-6-(2,5-difluorophenyl)-5-methylpyridazine-4-carbonitrile], the remaining activity at 30 µM came out at 3% and the IC50 turned out to be 17.9 nM.

As for `Cc1cc(N[C@H]2C[C@@H]3CN(CC4CCOCC4)C[C@@H]3C2)nnc1-c1cc(F)ccc1Cl` [compound 14, (3aR,5s,6aS)-N-(6-(2-chloro-5-fluorophenyl)-5-methylpyridazin-3-yl)-2-((tetrahydro-2H-pyran-4-yl)methyl)octahydrocyclopenta[c]pyrrol-5-amine], the remaining activity at 30 µM was 3% and the IC50 is 2.36 nM.

With `[2H]C([2H])(C1CCOCC1)N1C[C@H]2C[C@H](Nc3nnc(-c4cc(F)ccc4F)cc3C)C[C@H]2C1` [compound 11, (3aR,5s,6aS)-N-(6-(2,5-difluorophenyl)-4-methylpyridazin-3-yl)-2-((tetrahydro-2H-pyran-4-yl)methyl-d2)octahydrocyclopenta[c]pyrrol-5-amine], the remaining activity at 30 µM was found to be 3% and the IC50 came to 1 nM.

For `COc1cc(-c2ccccc2F)nnc1N[C@H]1C[C@@H]2CN(CC3CCOCC3)C[C@@H]2C1` [compound 2, (3aR,5s,6aS)-N-(6-(2-fluorophenyl)-4-methoxypyridazin-3-yl)-2-((tetrahydro-2H-pyran-4-yl)methyl)octahydrocyclopenta[c]pyrrol-5-amine], the remaining activity at 30 µM was found to be 3% and the IC50 was determined as 10.5 nM.

Turning to `[2H]C([2H])(C1CCOCC1)N1C[C@H]2C[C@H](Nc3nnc(-c4cc(F)ccc4F)cc3C3CC3)C[C@H]2C1` [compound 27, (3aR,5s,6aS)-N-(4-cyclopropyl-6-(2,5-difluorophenyl)pyridazin-3-yl)-2-((tetrahydro-2H-pyran-4-yl)methyl-d2)octahydrocyclopenta[c]pyrrol-5-amine], the remaining activity at 30 µM was 4% and the IC50 came out at 719 nM.

As for `[2H]C([2H])(C1CCOCC1)N1C[C@H]2C[C@H](Nc3cc(C)c(-c4cc(F)ccc4Cl)nn3)C[C@H]2C1` [compound 18, (3aR,5s,6aS)-N-(6-(2-chloro-5-fluorophenyl)-5-methylpyridazin-3-yl)-2-((tetrahydro-2H-pyran-4-yl)methyl-d2)octahydrocyclopenta[c]pyrrol-5-amine], the remaining activity at 30 µM turned out to be 3% and the IC50 was 0.44 nM.

On to `FC(F)c1cc(-c2ccccc2OC(F)(F)F)nnc1N[C@H]1C[C@@H]2CN(CC3CCOCC3)C[C@@H]2C1` [compound 86, (3aR,5s,6aS)-N-(4-(difluoromethyl)-6-(2-(trifluoromethoxy)phenyl)pyridazin-3-yl)-2-((tetrahydro-2H-pyran-4-yl)methyl)octahydrocyclopenta[c]pyrrol-5-amine], for which the remaining activity at 30 µM came out at 5% and the IC50 turned out to be 19 nM.

Take `Cn1cc2cc(-c3cc(C(F)F)c(N[C@H]4C[C@@H]5CN(CC6CCOCC6)C[C@@H]5C4)nn3)ccc2n1` [compound 83, (3aR,5s,6aS)-N-(4-(difluoromethyl)-6-(2-methyl-2H-indazol-5-yl)pyridazin-3-yl)-2-((tetrahydro-2H-pyran-4-yl)methyl)octahydrocyclopenta[c]pyrrol-5-amine]: the remaining activity at 30 µM was found to be 5% and the IC50 is 2.3 nM.
